Data taken from ChEMBL document CHEMBL3046519, “Synthesis and biological evaluation of some pyrazole derivatives as anti-inflammatoryantibacterial agents” (2012).
≈ marks a conversion by molar mass, not a printed value. Calls of active or inactive are those of the source. No cut-off for these calls is given here.

Experiments:
Rattus norvegicus [1] = experiment: Anti-inflammatory activity in Rattus norvegicus Wistar albino (rat) assessed as inhibition of carrageenan-induced paw edema at 50 mg/kg, po administered for 30 min prior to carrageenan challenge measured at 4 hr relative to control; format: functional
Escherichia coli = experiment: Antibacterial activity against Escherichia coli MTCC 1652 at 4 mg/ml after 24 hr by agar well diffusion method; format: functional, organism-based
Staphylococcus aureus [2] = experiment: Antibacterial activity against Staphylococcus aureus MTCC 96 by NCCLS broth macrodilution method; format: functional
Rattus norvegicus [3] = experiment: Anti-inflammatory activity in Rattus norvegicus Wistar albino (rat) assessed as inhibition of carrageenan-induced paw edema at 50 mg/kg, po administered for 30 min prior to carrageenan challenge measured at 1 hr relative to control; format: functional
Staphylococcus aureus [4] = experiment: Antibacterial activity against Staphylococcus aureus MTCC 96 at 4 mg/ml after 24 hr by agar well diffusion method; format: functional; conditions: MTCC 96, 24 h, read-out: DIZ
Rattus norvegicus [5] = experiment: Anti-inflammatory activity in Rattus norvegicus Wistar albino (rat) assessed as inhibition of carrageenan-induced paw edema at 50 mg/kg, po administered for 30 min prior to carrageenan challenge measured at 2 hr relative to control; format: functional
Rattus norvegicus [6] = experiment: Anti-inflammatory activity in Rattus norvegicus Wistar albino (rat) assessed as inhibition of carrageenan-induced paw edema at 50 mg/kg, po administered for 30 min prior to carrageenan challenge measured at 3 hr relative to control; format: functional
Bacillus subtilis [7] = experiment: Antibacterial activity against Bacillus subtilis MTCC 121 by NCCLS broth macrodilution method; format: functional
Bacillus subtilis [8] = experiment: Antibacterial activity against Bacillus subtilis MTCC 121 at 4 mg/ml after 24 hr by agar well diffusion method; format: functional; conditions: MTCC 121, 24 h, read-out: DIZ
Pseudomonas aeruginosa = conditions: MTCC 741, 4 mg/ml
Description: Antibacterial activity against Pseudomonas aeruginosa MTCC 741 at 4 mg/ml after 24 hr by agar well diffusion method

SMILES	inhibition in vivo at 50 mg/kg (Rattus norvegicus [1]) [%]	diameter of the inhibition zone (DIZ) (Escherichia coli)	MIC (Staphylococcus aureus [2]) [µg/mL]	inhibition in vivo at 50 mg/kg (Rattus norvegicus [3]) [%]	zone of inhibition at 4000 µg/mL (Staphylococcus aureus [4]) [mm]	inhibition in vivo at 50 mg/kg (Rattus norvegicus [5]) [%]	inhibition in vivo at 50 mg/kg (Rattus norvegicus [6]) [%]	MIC (Bacillus subtilis [7]) [µg/mL]	zone of inhibition at 4000 µg/mL (Bacillus subtilis [8]) [mm]	DIZ (Pseudomonas aeruginosa)
COc1ccc(-c2nn(-c3ccc(S(N)(=O)=O)cc3)cc2/C=N/Nc2nc(-c3ccccc3)cs2)cc1	61	inactive	> 128	32	15.3	65	61	> 128	15.6	inactive
Cc1ccc(-c2csc(N/N=C/c3cn(-c4ccc(S(N)(=O)=O)cc4)nc3-c3ccc(C)cc3)n2)cc1	61	inactive	> 128	24	13.6	72	75	> 128	14	inactive
NS(=O)(=O)c1ccc(-n2cc(/C=N/Nc3nc(-c4ccc(Cl)cc4)cs3)c(-c3ccc(Cl)cc3)n2)cc1	58	inactive	> 128	28	14.6	67	73	> 128	15	inactive
COc1ccc(-c2nn(-c3ccc(S(N)(=O)=O)cc3)cc2/C=N/Nc2nc(-c3ccc(C)cc3)cs2)cc1	70	inactive	64 (≈ 118 µM)	37	20.6	65	72	128 (≈ 235 µM)	17.3	inactive
COc1ccc(-c2nn(-c3ccc(S(N)(=O)=O)cc3)cc2/C=N/Nc2nc(-c3ccc(Cl)cc3)cs2)cc1	71	inactive	> 128	32	13.6	66	69	> 128	14.3	inactive
NS(=O)(=O)c1ccc(-n2cc(/C=N/Nc3nc(-c4ccccc4)cs3)c(-c3ccc(Cl)cc3)n2)cc1	56	inactive	> 128	22	13.3	62	57	> 128	15.6	inactive
NS(=O)(=O)c1ccc(-n2cc(/C=N/Nc3nc(-c4ccc(Cl)cc4)cs3)c(-c3ccccc3)n2)cc1	70	inactive	> 128	32	13.6	72	75	> 128	15.3	inactive
Cc1ccc(-c2csc(N/N=C/c3cn(-c4ccc(S(N)(=O)=O)cc4)nc3-c3ccc(Cl)cc3)n2)cc1	73	inactive	> 128	5	15.3	61	70	> 128	14.6	inactive
NS(=O)(=O)c1ccc(-n2cc(/C=N/Nc3nc(-c4ccccc4)cs3)c(-c3ccc(F)cc3)n2)cc1	56	inactive	> 128	11	14.6	60	65	> 128	16.6	inactive
COc1ccc(-c2nn(-c3ccc(S(N)(=O)=O)cc3)cc2/C=N/NC(N)=S)cc1	71	inactive	> 128	28	13.6	76	59	> 128	15	inactive
NC(=S)N/N=C/c1cn(-c2ccc(S(N)(=O)=O)cc2)nc1-c1ccccc1	63	inactive	128 (≈ 320 µM)	35	17	59	67	64 (≈ 160 µM)	19.6	inactive
NS(=O)(=O)c1ccc(-n2cc(/C=N/Nc3nc(-c4ccccc4)cs3)c(-c3ccccc3)n2)cc1	72	inactive	> 128	33	14.3	71	69	> 128	14.6	inactive
Cc1ccc(-c2nn(-c3ccc(S(N)(=O)=O)cc3)cc2/C=N/Nc2nc(-c3ccc(Cl)cc3)cs2)cc1	57	inactive	> 128	32	14.6	60	60	> 128	15.3	inactive
Cc1ccc(-c2nn(-c3ccc(S(N)(=O)=O)cc3)cc2/C=N/Nc2nc(-c3ccccc3)cs2)cc1	56	inactive	> 128	33	15.3	60	75	> 128	13.6	inactive
NS(=O)(=O)c1ccc(-n2cc(/C=N/Nc3nc(-c4ccc(Cl)cc4)cs3)c(-c3ccc(F)cc3)n2)cc1	75	inactive	> 128	35	14.3	29	73	> 128	13.3	inactive
NC(=S)N/N=C/c1cn(-c2ccc(S(N)(=O)=O)cc2)nc1-c1ccc(F)cc1	75	inactive	> 128	24	15.6	75	73	> 128	15.3	inactive
